In this assay the test system is BDF1 mice, P388 leukemia ip, median survival T/C. In words: NCI In Vivo Anticancer Drug Screen. Data for tumor model P388 Leukemia (intraperitoneal) in B6D2F1 (BDF1) mice. The following applies: endpoint: median survival time, higher = longer survival. A digest of the protocol: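 In tumour-bearing mice, survival after compound treatment is set against the vehicle group and given as a quotient.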

Where [1] appears, read: dose: 25.0 mg/kg/injection, schedule: Q01DX009 (ip), vehicle: water.
[2] abbreviates: dose: 25.0 mg/kg/injection, schedule: Q04DX003 (ip), vehicle: water.
[3] abbreviates: dose: 50.0 mg/kg/injection, schedule: Q01DX009 (ip), vehicle: water.
Setting [4] is: dose: 50.0 mg/kg/injection, schedule: Q04DX003 (ip), vehicle: water.
Where [5] appears, read: dose: 100.0 mg/kg/injection, schedule: Q01DX009 (ip), vehicle: water.
Where [6] appears, read: dose: 100.0 mg/kg/injection, schedule: Q04DX003 (ip), vehicle: water.
The mark [7] stands for this setting: dose: 200.0 mg/kg/injection, schedule: Q04DX003 (ip), vehicle: water.
Where [8] appears, read: dose: 50.0 mg/kg/injection, schedule: Q01DX009 (ip), vehicle: saline with Tween-80.
[9] abbreviates: dose: 100.0 mg/kg/injection, schedule: Q04DX003 (ip), vehicle: saline with Tween-80.
Where [10] appears, read: dose: 200.0 mg/kg/injection, schedule: Q04DX003 (ip), vehicle: saline with Tween-80.
Setting [11] is: dose: 400.0 mg/kg/injection, schedule: Q04DX003 (ip), vehicle: saline with Tween-80.
The mark [12] stands for this setting: dose: 100.0 mg/kg/injection, schedule: Q01DX009 (ip), vehicle: saline with Tween-80.
Where [13] appears, read: dose: 12.5 mg/kg/injection, schedule: Q01DX009 (ip), vehicle: water.
[14] abbreviates: dose: 12.5 mg/kg/injection, schedule: Q04DX003 (ip), vehicle: water.

This passage reports T/C results from PubChem BioAssay AID328 (DTP/NCI, 2004).

Several values for one entry are separate records, joined by “and”; a condition that tells them apart may be missing. Equal values may be shown once. Toxic doses and inconclusive results are not listed.

As for `O=C(NC1CSSC1)C(Cc1ccccc1)N1C(=O)c2ccccc2C1=O` (stereo not drawn), the T/C by setting is: under setting [1], 104 % of control; under setting [2], 90 % of control; under setting [3], 95 % of control; under setting [4], 107 % of control; under setting [5], 108 % of control; under setting [6], 98 % of control. For the same compound, the T/C (dose: 200.0 mg/kg/injection, schedule: Q01DX009 (ip), vehicle: water) was 108 % of control; the T/C under setting [7] is 100 % of control; the T/C (dose: 400.0 mg/kg/injection, schedule: Q01DX009 (ip), vehicle: water) was 100 % of control; the T/C (dose: 400.0 mg/kg/injection, schedule: Q04DX003 (ip), vehicle: water) was 98 % of control.
For the compound `C1CC[N-]CC1.C1CC[N-]CC1.C1CC[N-]CC1.C1CC[N-]CC1.[Cl][Rh][Cl]`, the T/C (dose: 12.5 mg/kg/injection, schedule: Q04DX003 (ip), vehicle: saline) was 118 % of control.
In the case of `ClC1=C(Cl)C(Cl)=C(Cl)C1=NN=C1C(Cl)=C(Cl)C(Cl)=C1Cl`, the T/C is 100 % of control (dose: 50.0 mg/kg/injection, schedule: Q01DX001 (ip), vehicle: saline with Tween-80); 95 % of control (dose: 100.0 mg/kg/injection, schedule: Q01DX001 (ip), vehicle: saline with Tween-80); 90 % of control (dose: 200.0 mg/kg/injection, schedule: Q01DX001 (ip), vehicle: saline with Tween-80).
On to `CCCCC(CC)C1NCCO1` (stereo not drawn), for which the T/C was 103 % of control under setting [8]; 110 % of control under setting [9]; 92 % of control (dose: 200.0 mg/kg/injection, schedule: Q01DX009 (ip), vehicle: saline with Tween-80); 115 % of control under setting [10]; 115 % of control under setting [11].
On to `C[CH2][Ge]1([CH2]C)[CH2]CC2(CCN(CCCN(C)C)C2)C[CH2]1`, for which the T/C is 105 % of control (dose: 0.5 mg/kg/injection, schedule: Q01DX009 (ip), vehicle: saline); 102 % of control (dose: 1.0 mg/kg/injection, schedule: Q01DX009 (ip), vehicle: saline); 103 % of control (dose: 2.0 mg/kg/injection, schedule: Q01DX009 (ip), vehicle: saline); 104 % of control and 118 % of control (dose: 4.0 mg/kg/injection, schedule: Q01DX009 (ip), vehicle: saline); 102 % of control (dose: 8.0 mg/kg/injection, schedule: Q01DX009 (ip), vehicle: saline); 103 % of control (dose: 16.0 mg/kg/injection, schedule: Q01DX009 (ip), vehicle: saline). The T/C runs as follows: (dose: 32.0 mg/kg/injection, schedule: Q01DX009 (ip), vehicle: saline) 100 % of control; (dose: 50.0 mg/kg/injection, schedule: Q01DX009 (ip), vehicle: saline) 102 % of control; (dose: 60.0 mg/kg/injection, schedule: Q01DX009 (ip), vehicle: saline with Tween-80) 92 % of control; (dose: 64.0 mg/kg/injection, schedule: Q01DX009 (ip), vehicle: saline) 91 % of control.
With `CC1(c2cccs2)C(=O)NC(=O)N1C(=O)CCl` (stereo not drawn), the T/C by setting is: (dose: 12.5 mg/kg/injection, schedule: Q01DX009 (ip), vehicle: saline with Tween-80) 101 % of control; (dose: 25.0 mg/kg/injection, schedule: Q01DX009 (ip), vehicle: saline with Tween-80) 88 % of control; under setting [8], 105 % of control; (dose: 50.0 mg/kg/injection, schedule: Q04DX003 (ip), vehicle: saline with Tween-80) 104 % of control; (dose: 75.0 mg/kg/injection, schedule: Q01DX009 (ip), vehicle: saline with Tween-80) 90 % of control; under setting [12], 106 % of control. Also, the T/C was 94 % of control under setting [9]; 105 % of control (dose: 150.0 mg/kg/injection, schedule: Q01DX009 (ip), vehicle: saline with Tween-80); 97 % of control under setting [10].
As for `Cc1ccc(S(=O)(=O)OCCN(CCOS(=O)(=O)c2ccc(C)cc2)c2ccc(C=O)cc2)cc1`, the T/C was 191 % of control (dose: 66.0 mg/kg/injection, schedule: Q04DX003 (ip), vehicle: saline with Tween-80); 250 % of control under setting [9]; 204 % of control (dose: 150.0 mg/kg/injection, schedule: Q04DX003 (ip), vehicle: saline with Tween-80).
On to `O=c1[nH]c(=O)c2nccnc2[nH]1`, for which the T/C is, setting by setting: under setting [13], 86 % of control; under setting [14], 266 % of control and 120 % of control; under setting [1], 111 % of control; under setting [2], 270 % of control and 113 % of control; under setting [3], 92 % of control; under setting [4], 266 % of control and 111 % of control. The T/C is, setting by setting: under setting [5], 104 % of control; under setting [6], 268 % of control and 102 % of control; under setting [7], 95 % of control.
`COc1ccc(CC2C(=O)NC(C)C(=O)N(C)C3C(=O)N(C)C(Cc4ccc(O)c(c4)Oc4ccc(cc4)C3O)C(=O)NC(C)C(=O)NC(C)C(=O)N2C)cc1` (stereo not drawn): the T/C is, setting by setting: (dose: 0.11 mg/kg/injection, schedule: Q01DX009 (ip), vehicle: alcohol) 150 % of control; (dose: 0.11 mg/kg/injection, schedule: Q01DX009 (ip), vehicle: saline) 164 % of control; (dose: 0.16 mg/kg/injection, schedule: Q01DX009 (ip), vehicle: alcohol) 158 % of control; (dose: 0.25 mg/kg/injection, schedule: Q01DX009 (ip), vehicle: alcohol) 188 % of control; (dose: 1.0 mg/kg/injection, schedule: Q01DX009 (ip), vehicle: distilled water + Tween-80) 173 % of control; (dose: 10.0 micrograms/kg/injection, schedule: Q01DX009 (ip), vehicle: alcohol) 110 % of control. Moreover, the T/C reads like this: (dose: 518.0 micrograms/kg/injection, schedule: Q04DX003 (ip), vehicle: other) 163 % of control; (dose: 864.0 micrograms/kg/injection, schedule: Q04DX003 (ip), vehicle: other) 184 % of control; (dose: 1440.0 micrograms/kg/injection, schedule: Q04DX003 (ip), vehicle: other) 175 % of control; (dose: 2400.0 micrograms/kg/injection, schedule: Q04DX003 (ip), vehicle: other) 181 % of control.
As to `O=[N+]([O-])c1cc([N+](=O)[O-])c2ccccc2c1NS(=O)(=O)c1ccc(Cl)c(Cl)c1Cl`, the T/C is 104 % of control under setting [8] and 120 % of control under setting [12].
As for `COC(=O)c1cc(C)n(C)c(=O)c1CNS(=O)(=O)c1ccccc1`, the T/C is, setting by setting: under setting [9], 98 % of control; under setting [10], 100 % of control; under setting [11], 98 % of control.
Regarding `O=P(N1CCOCC1)(N1CC1)N1CC1`, the T/C is, setting by setting: (dose: 12.5 mg/kg/injection, schedule: Q01DX009 (ip), vehicle: saline) 251 % of control and 290 % of control; (dose: 25.0 mg/kg/injection, schedule: Q01DX009 (ip), vehicle: saline) 90 % of control.
As for `CC(=O)Nc1cc2c3c(c1)CCN3CCC2`, the T/C is 95 % of control (dose: 3.13 mg/kg/injection, schedule: Q01DX001 (ip), vehicle: saline with Tween-80); 95 % of control (dose: 6.25 mg/kg/injection, schedule: Q01DX001 (ip), vehicle: saline with Tween-80); 90 % of control (dose: 12.5 mg/kg/injection, schedule: Q01DX001 (ip), vehicle: saline with Tween-80).
For the compound `c1ccc(-c2c(-c3ccccc3)c(-c3ccccc3)c(-c3ccccc3)c(-c3ccccc3)c2-c2ccccc2)cc1`, the T/C is 93 % of control (dose: 6.25 mg/kg/injection, schedule: Q01DX009 (ip), vehicle: water); 115 % of control under setting [13]; 106 % of control under setting [14]; 106 % of control and 108 % of control under setting [2]; 90 % of control under setting [3]; 100 % of control and 109 % of control under setting [4]. Moreover, the T/C under setting [5] was 89 % of control; the T/C under setting [6] was 88 % of control and 97 % of control.
On to `CCCCCSc1nc(N)nc2nc[nH]c12`, for which the T/C runs as follows: (dose: 100.0 mg/kg/injection, schedule: Q01DX009 (ip), vehicle: Klucel (hydroxypropylcellulose) (HPC)) 118 % of control; (dose: 100.0 mg/kg/injection, schedule: Q04DX003 (ip), vehicle: other) 100 % of control; (dose: 200.0 mg/kg/injection, schedule: Q01DX009 (ip), vehicle: Klucel (hydroxypropylcellulose) (HPC)) 95 % of control; (dose: 200.0 mg/kg/injection, schedule: Q04DX003 (ip), vehicle: other) 100 % of control; (dose: 400.0 mg/kg/injection, schedule: Q04DX003 (ip), vehicle: other) 94 % of control.
